Data taken from ChEMBL document CHEMBL1201862, “PubChem BioAssay data set” (2004).
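Briefly, cells in 96-well plates were exposed to five compound concentrations for 48 h, and endpoints were estimated by linear interpolation. Abbreviation: GI50, concentration required for 50% inhibition of growth.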 The source made the active and inactive calls. Rule as the data show it: active = GI50 up to about 1.1 µM and inactive = higher.

Legend:
Assay in all cases: NCI tumour cell line growth inhibition, 48 h
CCRF-CEM = system: CCRF-CEM
NCI-H226 = system: NCI-H226
SNB-19 = system: SNB-19
HOP-92 = system: HOP-92
EKVX = system: EKVX
SF-268 = system: SF-268
SK-MEL-2 = system: SK-MEL-2
PC-3 = system: PC-3
SK-OV-3 = system: SK-OV-3
OVCAR-4 = system: OVCAR-4
786-0 = system: 786-0
SNB-75 = system: SNB-75
MCF7 = system: MCF7
NCI/ADR-RES = system: NCI/ADR-RES
OVCAR-5 = system: OVCAR-5
HOP-62 = system: HOP-62
Hs-578T = system: Hs-578T
NCI-H522 = system: NCI-H522
CAKI-1 = system: CAKI-1
OVCAR-3 = system: OVCAR-3
Malme-3M = system: Malme-3M
MDA-N = system: MDA-N
BT-549 = system: BT-549
ACHN = system: ACHN
HT-29 = system: HT-29
RPMI-8226 = system: RPMI-8226
SN12C = system: SN12C
SF-539 = system: SF-539
SF-295 = system: SF-295
DU-145 = system: DU-145
MDA-MB-231 = system: MDA-MB-231
UO-31 = system: UO-31
MOLT-4 = system: MOLT-4
IGROV-1 = system: IGROV-1
HCT-116 = system: HCT-116
T47D = system: T47D
KM12 = system: KM12
M14 = system: M14
SK-MEL-28 = system: SK-MEL-28
U-251 = system: U-251
HCC 2998 = system: HCC 2998
NCI-H23 = system: NCI-H23
TK-10 = system: TK-10
COLO 205 = system: COLO 205
UACC-257 = system: UACC-257
SK-MEL-5 = system: SK-MEL-5
A549 = system: A549
UACC-62 = system: UACC-62
OVCAR-8 = system: OVCAR-8
MDA-MB-435 = system: MDA-MB-435
K562 = system: K562
NCI-H460 = system: NCI-H460
RXF 393 = system: RXF 393
LOX IMVI = system: LOX IMVI
SR = system: SR
A498 = system: A498
HCT-15 = system: HCT-15
HL-60 = system: HL-60
SW-620 = system: SW-620

Measured: GI50

Cc1c(-c2ccccc2)oc(=O)c2ccccc12
inactive: CCRF-CEM 18.4 µM | NCI-H226 17.5 µM | SNB-19 30.7 µM | HOP-92 11.8 µM | EKVX 18.5 µM | SF-268 17.4 µM | SK-MEL-2 20.4 µM | PC-3 24.4 µM | SK-OV-3 22.8 µM | OVCAR-4 17.5 µM | 786-0 24.2 µM | SNB-75 12.4 µM | MCF7 20.4 µM | NCI/ADR-RES 28.4 µM | OVCAR-5 30.8 µM | HOP-62 22.1 µM | Hs-578T 17.1 µM | NCI-H522 13.8 µM | CAKI-1 22.4 µM | OVCAR-3 20.2 µM | Malme-3M 21.7 µM | MDA-N 20 µM | BT-549 13.7 µM | ACHN 26.2 µM | HT-29 15.5 µM | RPMI-8226 16.7 µM | SN12C 17.7 µM | SF-539 18.3 µM | SF-295 18.3 µM | DU-145 37.7 µM | MDA-MB-231 16.7 µM | UO-31 19 µM | MOLT-4 11 µM | IGROV-1 20.2 µM | HCT-116 24.6 µM | T47D 30.5 µM | KM12 23.4 µM | M14 22.5 µM | SK-MEL-28 19.4 µM | U-251 17.9 µM | HCC 2998 18.2 µM | NCI-H23 24.8 µM | TK-10 23.6 µM | COLO 205 16 µM | UACC-257 15.5 µM | SK-MEL-5 18.5 µM | A549 25 µM | UACC-62 16.9 µM | OVCAR-8 27.1 µM | MDA-MB-435 15.6 µM | K562 30.2 µM | NCI-H460 26.4 µM | RXF 393 16.5 µM | LOX IMVI 19.1 µM | SR 10.3 µM | A498 > 10 µM
19.8 µM: HCT-15

COc1cc2c3cc1Oc1c(OC)c(OC)cc4c1C(Cc1ccc(O)c(c1)-c1cc(ccc1OC)CC3N(C)CC2)N(C)CC4 (stereo not drawn)
active: SR 0.659 µM
6.07 µM: HCT-15
inactive: NCI-H226 40.6 µM | SNB-19 22.3 µM | HOP-92 20.2 µM | EKVX 25.6 µM | SF-268 19.1 µM | SK-MEL-2 19.5 µM | PC-3 20.4 µM | SK-OV-3 72.8 µM | OVCAR-4 29.4 µM | 786-0 29 µM | SNB-75 18.7 µM | MCF7 16.5 µM | NCI/ADR-RES 25.9 µM | OVCAR-5 44.8 µM | Hs-578T 21.3 µM | NCI-H522 11.5 µM | CAKI-1 16.4 µM | OVCAR-3 21.6 µM | Malme-3M 18.2 µM | MDA-N 13.6 µM | BT-549 19.7 µM | ACHN 15.8 µM | HT-29 6.92 µM | SN12C 15.6 µM | SF-539 7.08 µM | SF-295 16.5 µM | DU-145 50.8 µM | MDA-MB-231 13.3 µM | UO-31 13.9 µM | MOLT-4 11.8 µM | IGROV-1 22.1 µM | HL-60 2.66 µM | HCT-116 12.3 µM | T47D 24.2 µM | KM12 17.5 µM | M14 3.18 µM | SK-MEL-28 27 µM | U-251 28.1 µM | HCC 2998 17.2 µM | NCI-H23 21.4 µM | SW-620 22.3 µM | TK-10 32.9 µM | COLO 205 25.1 µM | UACC-257 21 µM | SK-MEL-5 14.8 µM | A549 24.5 µM | UACC-62 23.9 µM | OVCAR-8 17.4 µM | MDA-MB-435 23.6 µM | K562 6 µM | NCI-H460 16 µM | RXF 393 1.96 µM | LOX IMVI 4.8 µM | A498 23.2 µM
